Test results: ChEMBL document CHEMBL4842357, “Discovery of Novel Apigenin-Piperazine Hybrids as Potent and Selective Poly (ADP-Ribose) Polymerase-1 (PARP-1) Inhibitors for the Treatment of Cancer” (J Med Chem, 2021)

Key:
[1] = target: T1, Poly [ADP-ribose] polymerase 1 (Homo sapiens, UniProt P09874); test: Inhibition of recombinant human full-length PARP-1 using biotinylated substrate
[2] = target: T2, Poly [ADP-ribose] polymerase 2 (Homo sapiens, UniProt Q9UGN5); test: Inhibition of recombinant human full-length PARP-2 using biotinylated substrate
Homo sapiens [3] = organism: Homo sapiens; test: Selectivity index, ratio of IC50 for inhibition of recombinant human full-length PARP-2 to IC50 for inhibition of recombinant human full-length PARP-1
[4] = target: T1, Poly [ADP-ribose] polymerase 1; test: Inhibition of PARP-1 (unknown origin)
[5] = target: T2, Poly [ADP-ribose] polymerase 2; test: Inhibition of PARP-2 (unknown origin)
Homo sapiens [6] = organism: Homo sapiens; test: Selectivity index, ratio of IC50 for PARP-2 (unknown origin) to IC50 for PARP-1 (unknown origin)

T2 sequence (Q9UGN5 whole entry): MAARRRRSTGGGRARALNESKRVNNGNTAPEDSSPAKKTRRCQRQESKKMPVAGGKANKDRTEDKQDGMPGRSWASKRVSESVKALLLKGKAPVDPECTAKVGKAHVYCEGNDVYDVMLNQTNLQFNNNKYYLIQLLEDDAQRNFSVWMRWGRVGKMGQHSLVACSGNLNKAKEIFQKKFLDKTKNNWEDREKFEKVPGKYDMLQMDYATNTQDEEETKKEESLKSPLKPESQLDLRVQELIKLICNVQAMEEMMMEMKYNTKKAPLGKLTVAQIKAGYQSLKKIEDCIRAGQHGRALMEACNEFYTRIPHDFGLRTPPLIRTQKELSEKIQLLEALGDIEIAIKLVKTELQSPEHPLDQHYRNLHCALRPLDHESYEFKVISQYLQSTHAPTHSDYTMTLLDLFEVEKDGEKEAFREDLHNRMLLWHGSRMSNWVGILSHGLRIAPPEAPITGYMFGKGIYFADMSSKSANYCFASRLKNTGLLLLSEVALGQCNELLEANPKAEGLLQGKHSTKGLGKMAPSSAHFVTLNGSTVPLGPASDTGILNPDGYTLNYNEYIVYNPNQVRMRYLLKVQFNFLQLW
T1 sequence (P09874 whole entry): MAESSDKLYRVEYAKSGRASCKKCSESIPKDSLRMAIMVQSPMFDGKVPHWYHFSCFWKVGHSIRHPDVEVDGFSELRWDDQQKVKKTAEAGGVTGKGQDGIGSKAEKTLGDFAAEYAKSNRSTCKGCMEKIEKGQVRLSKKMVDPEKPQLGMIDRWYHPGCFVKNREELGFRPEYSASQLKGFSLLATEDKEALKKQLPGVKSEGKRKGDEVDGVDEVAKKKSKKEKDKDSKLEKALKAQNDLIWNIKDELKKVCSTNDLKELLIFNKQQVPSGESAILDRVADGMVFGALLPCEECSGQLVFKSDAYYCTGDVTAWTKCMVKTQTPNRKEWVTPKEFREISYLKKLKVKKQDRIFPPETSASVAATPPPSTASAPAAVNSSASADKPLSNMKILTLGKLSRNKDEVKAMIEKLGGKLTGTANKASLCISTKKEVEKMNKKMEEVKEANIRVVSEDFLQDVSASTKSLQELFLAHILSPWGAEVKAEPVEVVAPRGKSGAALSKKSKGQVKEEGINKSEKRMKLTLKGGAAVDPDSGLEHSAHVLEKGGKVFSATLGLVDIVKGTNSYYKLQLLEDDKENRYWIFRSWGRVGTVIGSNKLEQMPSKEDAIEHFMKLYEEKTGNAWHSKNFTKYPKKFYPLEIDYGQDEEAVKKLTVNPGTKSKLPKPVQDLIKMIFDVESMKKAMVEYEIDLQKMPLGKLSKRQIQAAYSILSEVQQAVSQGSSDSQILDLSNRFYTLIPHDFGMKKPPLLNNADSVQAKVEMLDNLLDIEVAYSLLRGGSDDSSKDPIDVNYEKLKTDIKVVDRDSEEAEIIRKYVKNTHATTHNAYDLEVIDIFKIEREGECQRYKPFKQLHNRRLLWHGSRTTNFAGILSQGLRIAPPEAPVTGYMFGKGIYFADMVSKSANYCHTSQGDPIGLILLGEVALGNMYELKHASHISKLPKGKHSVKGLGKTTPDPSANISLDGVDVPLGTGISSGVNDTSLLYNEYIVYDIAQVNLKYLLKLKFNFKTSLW

IC50 [1]: 0.187 µM
IC50 [2]: 10.3 µM
Ratio IC50 (Homo sapiens [3]): 55.2
IC50 [4]: 0.0002 µM
IC50 [5]: 10.3 µM
Ratio IC50 (Homo sapiens [6]): 52
Structure (SMILES): O=c1cc(-c2ccc(O)c(-c3c(O)cc(O)c4c(=O)cc(-c5ccc(O)cc5)oc34)c2)oc2cc(O)cc(O)c12 [AMENTOFLAVONE]
